Measurements reported in US5624932A (priority 1995, dated 1997).
Entries after “also recorded” stand apart in the source; their conditions may differ.

Experiments:
[1] = test system: dorsal root ganglion (DRG) neurons; format: cell-based, mouse
[2] = test system: morphine-dependent monkeys; conditions: rhesus monkey, in vivo
morphine-dependent rats = test system: morphine-dependent rats; parameters: species or system Wistar rats; conditions: rat, in vivo
[3] = in vivo; cited from earlier work
[4] = test system: chronic opioid-treated DRG neurons; format: cell-based, mouse
[5] = test system: dorsal root ganglion (DRG) neurons; conditions: nM-μM; cited from earlier work
[6] = test system: morphine-dependent monkeys; parameters: species or system rhesus monkeys (Macaca mulatta); conditions: rhesus monkey, in vivo
opiate addicts = conditions: in vivo

CN1CC[C@]23CCCC[C@H]2[C@H]1Cc1ccc(O)cc13 [Levorphenol]
Alteration of action potential duration, opioid at high concentration [1]: Shortening
Alteration of action potential duration, opioid at low concentration [1]: Prolongation

CN1CC[C@]23c4c5ccc(O)c4O[C@H]2[C@@H](O)C=C[C@H]3[C@H]1C5 [Morphine, morphine]
time after withdrawal at which withdrawal symptoms began [2]: Sixteen
prevention of body weight loss (morphine-dependent rats): 43.5%
suppression of other withdrawal symptoms (morphine-dependent rats): 45.5%
time to complete recovery of weight loss (morphine-dependent rats; sc): 48 h
time to reversal of body weight loss (morphine-dependent rats; sc): 3 h

C=CCN1CC[C@]23c4c5ccc(O)c4O[C@H]2C(=O)CC[C@@]3(O)[C@H]1C5 [naloxone]
oral or sublingual bioavailability [3]: low
naloxone effect on APD of chronic opioid-treated DRG neurons [4]: excitatory APD-prolonging effect; also recorded: prolongs the APD
peak response of naloxone induced withdrawal symptoms (morphine-dependent rats; ip, 4 mg/kg): ≤ 15 min
time of maximum body weight loss after naloxone precipitation (morphine-dependent rats; ip, 4 mg/kg): 24 h
time to gradual weight recovery after naloxone precipitation (morphine-dependent rats; ip, 4 mg/kg): 90 h
effect of naloxone on the APD of naive DRG neurons [5]: does not alter the APD; also recorded: ineffective

CCC(=O)C(CC(C)N(C)C)(c1ccccc1)c1ccccc1 (stereo not shown) [Methadone, methadone]
Scores of withdrawal syndromes, 1st naloxone precipitation (X ± SD) [6]: 17.0 ± 4.6
Scores of withdrawal syndromes, 2nd naloxone precipitation (X ± SD) [6]: 1.3 ± 1.2
naloxone precipitation test on day 9 [6]: naloxone precipitated withdrawal symptoms
naloxone withdrawal symptoms after maintenance or substitution treatment [6]: moderate naloxone withdrawal symptoms
withdrawal symptoms between injections during substitution [6]: some moderate withdrawal symptoms
withdrawal symptoms during the first several days of substitution [6]: partially suppressed
addiction resulting from substitution treatment (opiate addicts): invariably results in transfer to methadone addiction
rebound of withdrawal symptoms (opiate addicts): often results in the rebound of withdrawal symptoms
side effects during substitution treatment (opiate addicts): negligible
time before symptomatic relief (opiate addicts): one to several
Alteration of action potential duration, opioid at high concentration [1]: inhibitory APD-shortening
Alteration of action potential duration, opioid at low concentration [1]: excitatory APD-prolonging; also recorded: Prolongation
prevention of body weight loss (morphine-dependent rats): 48.15%
suppression of other withdrawal symptoms (morphine-dependent rats): 49.4%
effect on naloxone induced withdrawal symptoms (morphine-dependent rats; ip): suppressed
effect on body weight loss (morphine-dependent rats; sc): prevent further body weight loss
second naloxone test, withdrawal symptoms (morphine-dependent rats; sc): less severe withdrawal symptoms in comparison to the morphine group, yet more severe when compare with the DHE group
significance of effect on body weight loss vs untreated (saline) control (morphine-dependent rats; sc): highly significant
